In patent US8372808B2, “Suppression of glial fibrillary acidic protein” (Wisconsin Alumni Research Foundation, priority 2008, dated 2013):

What was measured:
GFAP protein = assay: sandwich ELISA for GFAP protein in 172.9 cells, quaternary screen; assay type: cell-based, mouse; settings: 10 days of exposure, 0-20 μM
Protocol: Compounds were tested at eight different concentrations ranging from 0-20 μM. In addition, GFAP protein levels were measured using a sandwich ELISA, which has greater sensitivity and is more accurate than the cell-based ELISA used in the primary screens.
The extracts were harvested from each well and the total GFAP content of each well was measured by a sandwich ELISA as described below. Briefly, separate microtiter plates were coated with SMI-26 anti-GFAP mouse monoclonal antibody cocktail (1:1000, Covance, diluted in PBS) overnight at 4° C., rinsed 3 times in PBS, and then blocked with Blotto (5% nonfat milk/PBS) for 2 h at RT. Samples from the astrocyte cell lysate (20 μl per well) were loaded onto the plates and brought up to 100 μl with 0.5% Triton X-100/PBS (a buffer used for subsequent antibody incubations and rinses), and incubated with a rabbit polyclonal anti-GFAP antibody (1:5000, DAKO) overnight at 4° C. The plates were rinsed three times and then incubated with HRP-conjugated goat anti-rabbit IgG (1:30,000, Sigma) for 2 h at RT. After three final rinses, peroxidase activity was detected using the Super Signal Femto maximum Sensitivity Substrate (Pierce) with a GloRunner microplate luminometer (Turner Biosystems). The GFAP content in the samples was determined from a standard curve generated using serial dilutions of purified GFAP (Research Diagnostics).

[1] = system: 2.2 kb human GFAP promoter; assay: hGFAP promoter luciferase activity assay in 172.9 cells (primary astrocytes from dual luciferase transgenic mice); assay type: cell-based
GFAP promoter = GFAP promoter activity in brain of Tg172.9 mice (Dual-Glo luciferase assay); assay type: in vivo, mouse
Protocol: Controls were injected with vehicle only. Brains were collected at various times post-injection, and analyzed for GFAP promoter activity using the Dual-Glo assay. Graphs present the mean±SEM (n=4 at each data point). Statistical significance was evaluated by unpaired t-test (* p<0.05). […] Brains were collected at 6 hours post-injection and analyzed for GFAP promoter activity using the Dual-Glo assay. Graphs present the mean±SD (n=4 at each data point). Statistical significance was evaluated by unpaired t-test (* p<0.05).
Another group of mice were injected with the same volume of vehicle alone (n=15). Brains were bisected sagittally with one half analyzed for GFAP promoter activity using the Dual-Glo assay, and the other half analyzed for GFAP protein using the sandwich ELISA. FIG. 7A is a bar graph showing hGFAP promoter activity of clomipramine-treated mice. The mice show a 26% reduction in hGFAP promoter activity compared to vehicle-treated controls. FIG. 7B is a bar graph showing the GFAP protein levels of clomipramine-treated mice. The mice show a 57% reduction in total GFAP content compared to vehicle-treated controls. Graphs present the mean±SD (* p<0.05, ***p<0.001, unpaired t-test).
At various times after injection, from 0-48 hours, brains were harvested for measurement of GFAP promoter activity using the Dual-Glo luciferase assay, and GFAP protein using a sandwich ELISA.
Injections were given in the afternoon, between 3-5 PM. Controls were transgenic littermates injected with vehicle alone. At the end of the three week course of injections (and one day after the last injection), brains were harvested for analysis of GFAP promoter activity and protein levels as described above.
To achieve significant reductions of GFAP protein in vivo may require chronic treatments, given the slow turnover of this protein. […] Controls were injected with vehicle alone. One day after the last injection, brains were harvested and assayed for both GFAP promoter activity and GFAP protein.

[2] = pilot studies with daily injections of clomipramine (tolerability); assay type: in vivo, mouse; settings: daily injections of 40 mg/kg; after 2 weeks

In the case of `CN(C)CCCN1c2ccccc2CCc2ccc(Cl)cc21` [clomipramine], the “reductions in GFAP protein levels” value (GFAP protein) is reported as “consistent reductions”, the “concentrations found effective in cultured astrocytes” value ([1]; cultured astrocytes) is reported as 5 to 10 µM and the “reductions in luciferase activity” value ([1]; quaternary screen, 10 days of exposure, 0-20 μM) is reported as “consistent reductions”. For the same compound, the “% GFAP reductions, luciferace expression from hGFAP promoter” value ([1]; tertiary screen, 48 hr exposure, at the MTDcc) was 66%, the “reduction in GFAP promoter activity compared to vehicle-treated controls” value (GFAP promoter; 40 mg/kg IP every other day for 3 weeks) was 26% and the “time at which promoter activity returned to normal” value (GFAP promoter; single 40 mg/kg IP, brain) was at most 24 h. For the same compound, the “time of peak reduction in promoter activity after injection” value (GFAP promoter; single 40 mg/kg IP, brain) was 4 to 6 h, the “reduction in promoter activity” value (GFAP promoter; single injection of 40 mg/kg IP, brains collected at 4 hours after injection) was 38% and the “effect on promoter activity” value (GFAP promoter; single injection, doses of 5-20 mg/kg IP) was “without effect”. For the same compound, the “side effect of daily injections” value [2] was “weight loss”.
